From article PMC10495264 (Nature Cell Biology, 2023)
Where “and” joins values, the source holds several entries; their conditions need not be identical. Identical values can stand only once.

How the values were obtained:
[1] = tested on: FASN, ACC1 and mTOR total protein levels; experiment: FASN, ACC1 and mTOR total protein levels, immunoblot; format: cell-based, human
Procedure: For standard SDS–PAGE and immunoblotting experiments, cells from a well of a 12-well plate were lysed in 250 μl of ice-cold Triton lysis buffer (50 mM Tris pH 7.5, 1% Triton X-100, 150 mM NaCl, 50 mM NaF, 2 mM Na-vanadate and 0.011 g ml^−1 β-glycerophosphate) supplemented with 1×PhosSTOP phosphatase inhibitors (cat. no. 4906837001, Roche) and 1×cOmplete protease inhibitors (cat. no. 11836153001, Roche) for 10 min on ice. The samples were clarified by centrifugation (20,000g, 15 min, 4 °C) and the supernatants were boiled in 1×SDS sample buffer (5×SDS sample buffer: 350 mM Tris–HCl pH 6.8, 30% glycerol, 600 mM DTT, 12.8% SDS and 0.12% bromophenol blue). The band intensities were quantified using the ImageJ software.
Data in graphs are shown as the mean ± s.e.m. *P < 0.05, **P < 0.005, ***P < 0.0005. Source numerical data and unprocessed blots are provided. Source data

HEK293T cells = experiment: OPP incorporation assay (de novo protein synthesis); format: cell-based, human; conditions: cerulenin 50 μM, 4 h
Procedure: An OPP incorporation assay was used to test for de novo protein synthesis. […] The cells were subsequently washed with DPBS, trypsinized and fixed with ice-cold 70% ethanol for 30 min at −20 °C, followed by three washes with PBS containing 0.5% Tween-20. […] The samples were run in a Guava easyCyte HT flow cytometer (Millipore) and analysed using FlowJo (v10).

[2] = tested on: Tor1 and Fas1 malonylation; experiment: Malonylation of immunopurified HA-Tor1 and Fas1-HA (anti-Mal-K) from yeast cells; format: cell-based, Saccharomyces cerevisiae
Procedure: For the yeast co-immunoprecipitations experiments, cells were collected by filtration and immediately frozen in liquid nitrogen. […] Total cell extracts were recovered from the beads and cleared by centrifugation. At this stage, samples were taken for input analysis and denatured with a Laemmli-based sample buffer (350 mM Tris–HCl pH 6.8, 30% glycerol, 600 mM DTT, 10% SDS and 0.2 mg ml^−1 bromophenol blue). The cleared lysates (10–20 mg) were incubated for 2 h at 4 °C with magnetic beads pre-conjugated with anti-HA (cat. no. 88837, Pierce). The beads were then washed five times with high salt lysis buffer (50 mM Tris–HCl pH 7.5, 300 mM NaCl, 10% glycerol and 0.1% Nonidet P40) and eventually resuspended in 20 μl lysis buffer and 20 μl 2×Laemmli buffer.

mTORC1 = mTORC1 activity in MCF-7 cells, p-S6K^T389/S6K immunoblot; format: cell-based, human; conditions: cerulenin 50 μM 2 or 4 h
TORC1 = target: T1, TORC1 (Saccharomyces cerevisiae, UniProt P35169); experiment: MST binding affinity assays with fluorescent TORC1 (GFP–Tor1)
T1 construct: made in house; host or cells: S. cerevisiae strain NIC005 ([RL170-2c] LEU2:GFP-TOR1)
Procedure: The MST experiments were performed using a Monolith NT.115 (Nanotemper Technologies). Purification of TORC1 containing the N-terminally GFP-tagged Tor1 subunit was carried out as described previously. For the protein–protein interaction experiments, GFP–Tor1-containing TORC1 (7.5 nM) was mixed with a series of twofold dilutions (a total of 16 samples) of Acc1 (highest concentration, 80 nM) or Fas1 (highest concentration, 20 nM) purified from yeast through TAP-tag immuno-enrichment with rabbit IgG-coated magnetic beads and subsequent TEV cleavage in elution buffer (50 mM HEPES NaOH pH 7.5 and 150 mM NaCl) for 1 h at 18 °C. The samples were loaded into Monolith NT.115 capillaries and MST measurements were performed using 80% laser power and medium MST power setting at 30 °C. For the small molecule–protein interaction experiments, GFP–Tor1-containing TORC1 (7.5 nM) was mixed with a series of twofold dilutions (a total of 16 samples) of Mal-CoA (M4263, Sigma-Aldrich; highest concentration, 5 mM) dissolved in 50 mM HEPES pH 7.5. The samples were loaded into Monolith NT.115 capillaries and MST measurements were performed using 80% laser power and medium MST power setting at 30 °C. The experiments were performed in triplicate and data were fitted using the Kd model of the MO.Affinity Analysis software (Nanotemper Technologies). The signal-to-noise ratio represents the response amplitude divided by the noise of the measurement. The Kd value was obtained by plotting the bound fraction against the log-transformed ligand concentration.

T1 sequence (P35169 whole entry): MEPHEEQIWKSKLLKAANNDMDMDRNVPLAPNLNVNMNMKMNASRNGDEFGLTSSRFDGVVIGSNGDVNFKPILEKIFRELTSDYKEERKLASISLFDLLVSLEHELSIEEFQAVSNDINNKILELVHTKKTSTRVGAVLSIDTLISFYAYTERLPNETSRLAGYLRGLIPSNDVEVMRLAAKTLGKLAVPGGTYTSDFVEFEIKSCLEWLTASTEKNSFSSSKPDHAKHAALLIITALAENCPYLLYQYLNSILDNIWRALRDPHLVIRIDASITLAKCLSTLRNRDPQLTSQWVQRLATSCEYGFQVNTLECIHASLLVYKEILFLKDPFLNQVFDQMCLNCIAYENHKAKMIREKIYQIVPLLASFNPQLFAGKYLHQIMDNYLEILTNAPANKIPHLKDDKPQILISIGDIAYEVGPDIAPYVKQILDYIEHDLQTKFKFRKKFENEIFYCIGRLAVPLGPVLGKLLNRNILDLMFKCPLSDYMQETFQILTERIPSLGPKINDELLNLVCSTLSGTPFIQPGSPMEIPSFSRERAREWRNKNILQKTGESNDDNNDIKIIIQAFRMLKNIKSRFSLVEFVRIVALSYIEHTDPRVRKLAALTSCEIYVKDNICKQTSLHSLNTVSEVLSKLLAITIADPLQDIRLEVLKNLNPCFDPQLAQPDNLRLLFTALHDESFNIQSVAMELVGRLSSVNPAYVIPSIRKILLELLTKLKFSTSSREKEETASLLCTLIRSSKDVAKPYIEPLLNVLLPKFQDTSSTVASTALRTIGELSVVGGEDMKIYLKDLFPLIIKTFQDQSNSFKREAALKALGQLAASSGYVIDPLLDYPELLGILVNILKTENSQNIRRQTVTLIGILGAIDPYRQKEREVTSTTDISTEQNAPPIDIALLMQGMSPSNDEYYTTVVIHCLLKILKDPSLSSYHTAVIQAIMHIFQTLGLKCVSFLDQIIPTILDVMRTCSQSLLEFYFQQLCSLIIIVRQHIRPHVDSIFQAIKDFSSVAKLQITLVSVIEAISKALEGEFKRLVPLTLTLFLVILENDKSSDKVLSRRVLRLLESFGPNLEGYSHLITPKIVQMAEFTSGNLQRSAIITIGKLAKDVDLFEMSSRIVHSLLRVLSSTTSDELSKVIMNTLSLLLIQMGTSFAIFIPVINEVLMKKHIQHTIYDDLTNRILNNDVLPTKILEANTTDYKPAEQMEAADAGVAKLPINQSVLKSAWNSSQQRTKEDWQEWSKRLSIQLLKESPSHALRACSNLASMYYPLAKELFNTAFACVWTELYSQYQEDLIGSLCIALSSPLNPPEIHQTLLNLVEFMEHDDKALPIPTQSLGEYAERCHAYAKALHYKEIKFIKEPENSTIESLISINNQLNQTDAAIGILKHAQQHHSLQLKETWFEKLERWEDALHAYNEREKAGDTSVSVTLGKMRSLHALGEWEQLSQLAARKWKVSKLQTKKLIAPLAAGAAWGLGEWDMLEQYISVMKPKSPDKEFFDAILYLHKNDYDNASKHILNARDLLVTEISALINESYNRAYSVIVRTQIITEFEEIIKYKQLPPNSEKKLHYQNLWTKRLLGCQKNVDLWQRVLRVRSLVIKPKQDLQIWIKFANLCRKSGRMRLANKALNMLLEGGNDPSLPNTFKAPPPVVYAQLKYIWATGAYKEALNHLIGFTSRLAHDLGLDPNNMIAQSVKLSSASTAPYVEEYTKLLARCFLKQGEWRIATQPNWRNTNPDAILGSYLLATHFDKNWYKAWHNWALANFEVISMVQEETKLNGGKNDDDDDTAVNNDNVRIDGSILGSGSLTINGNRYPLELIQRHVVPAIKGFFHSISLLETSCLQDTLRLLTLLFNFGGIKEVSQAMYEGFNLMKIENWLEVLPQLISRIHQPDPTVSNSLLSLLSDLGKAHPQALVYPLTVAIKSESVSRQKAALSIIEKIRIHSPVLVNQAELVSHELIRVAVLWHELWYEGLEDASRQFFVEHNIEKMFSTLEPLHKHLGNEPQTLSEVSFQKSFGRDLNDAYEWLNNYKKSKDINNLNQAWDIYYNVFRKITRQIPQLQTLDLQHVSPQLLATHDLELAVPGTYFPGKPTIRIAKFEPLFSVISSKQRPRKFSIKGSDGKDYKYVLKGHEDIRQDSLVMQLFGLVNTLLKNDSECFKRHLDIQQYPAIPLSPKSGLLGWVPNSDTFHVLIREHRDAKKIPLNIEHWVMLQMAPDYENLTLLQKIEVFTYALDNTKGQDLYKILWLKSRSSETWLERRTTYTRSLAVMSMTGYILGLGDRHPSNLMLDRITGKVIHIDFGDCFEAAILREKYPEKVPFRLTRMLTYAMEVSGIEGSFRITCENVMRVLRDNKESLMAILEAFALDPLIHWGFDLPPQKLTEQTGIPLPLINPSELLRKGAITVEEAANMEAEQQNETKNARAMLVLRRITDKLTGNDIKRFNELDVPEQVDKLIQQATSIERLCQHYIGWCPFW
T1 sequence (Q08921 whole entry partner): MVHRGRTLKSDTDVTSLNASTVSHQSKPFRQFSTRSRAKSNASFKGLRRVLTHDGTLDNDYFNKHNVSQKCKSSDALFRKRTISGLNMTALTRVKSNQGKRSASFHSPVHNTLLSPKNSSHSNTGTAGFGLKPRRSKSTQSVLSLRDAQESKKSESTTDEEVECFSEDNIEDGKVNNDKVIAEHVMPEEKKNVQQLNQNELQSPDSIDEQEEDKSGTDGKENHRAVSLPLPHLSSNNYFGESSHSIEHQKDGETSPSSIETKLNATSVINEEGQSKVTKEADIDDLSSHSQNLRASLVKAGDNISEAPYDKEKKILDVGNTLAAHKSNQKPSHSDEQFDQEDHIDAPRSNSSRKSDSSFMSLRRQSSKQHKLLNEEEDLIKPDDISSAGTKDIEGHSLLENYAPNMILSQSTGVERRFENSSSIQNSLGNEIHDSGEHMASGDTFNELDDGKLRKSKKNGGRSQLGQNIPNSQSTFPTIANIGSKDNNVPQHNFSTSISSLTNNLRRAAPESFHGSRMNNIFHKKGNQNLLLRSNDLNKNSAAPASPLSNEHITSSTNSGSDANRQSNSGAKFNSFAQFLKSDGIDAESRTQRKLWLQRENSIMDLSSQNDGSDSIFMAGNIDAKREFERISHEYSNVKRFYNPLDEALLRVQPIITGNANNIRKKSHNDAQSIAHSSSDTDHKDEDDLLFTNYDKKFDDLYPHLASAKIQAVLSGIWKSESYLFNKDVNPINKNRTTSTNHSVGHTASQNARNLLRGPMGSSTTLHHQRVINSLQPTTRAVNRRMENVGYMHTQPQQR
T1 sequence (P38873 whole entry partner): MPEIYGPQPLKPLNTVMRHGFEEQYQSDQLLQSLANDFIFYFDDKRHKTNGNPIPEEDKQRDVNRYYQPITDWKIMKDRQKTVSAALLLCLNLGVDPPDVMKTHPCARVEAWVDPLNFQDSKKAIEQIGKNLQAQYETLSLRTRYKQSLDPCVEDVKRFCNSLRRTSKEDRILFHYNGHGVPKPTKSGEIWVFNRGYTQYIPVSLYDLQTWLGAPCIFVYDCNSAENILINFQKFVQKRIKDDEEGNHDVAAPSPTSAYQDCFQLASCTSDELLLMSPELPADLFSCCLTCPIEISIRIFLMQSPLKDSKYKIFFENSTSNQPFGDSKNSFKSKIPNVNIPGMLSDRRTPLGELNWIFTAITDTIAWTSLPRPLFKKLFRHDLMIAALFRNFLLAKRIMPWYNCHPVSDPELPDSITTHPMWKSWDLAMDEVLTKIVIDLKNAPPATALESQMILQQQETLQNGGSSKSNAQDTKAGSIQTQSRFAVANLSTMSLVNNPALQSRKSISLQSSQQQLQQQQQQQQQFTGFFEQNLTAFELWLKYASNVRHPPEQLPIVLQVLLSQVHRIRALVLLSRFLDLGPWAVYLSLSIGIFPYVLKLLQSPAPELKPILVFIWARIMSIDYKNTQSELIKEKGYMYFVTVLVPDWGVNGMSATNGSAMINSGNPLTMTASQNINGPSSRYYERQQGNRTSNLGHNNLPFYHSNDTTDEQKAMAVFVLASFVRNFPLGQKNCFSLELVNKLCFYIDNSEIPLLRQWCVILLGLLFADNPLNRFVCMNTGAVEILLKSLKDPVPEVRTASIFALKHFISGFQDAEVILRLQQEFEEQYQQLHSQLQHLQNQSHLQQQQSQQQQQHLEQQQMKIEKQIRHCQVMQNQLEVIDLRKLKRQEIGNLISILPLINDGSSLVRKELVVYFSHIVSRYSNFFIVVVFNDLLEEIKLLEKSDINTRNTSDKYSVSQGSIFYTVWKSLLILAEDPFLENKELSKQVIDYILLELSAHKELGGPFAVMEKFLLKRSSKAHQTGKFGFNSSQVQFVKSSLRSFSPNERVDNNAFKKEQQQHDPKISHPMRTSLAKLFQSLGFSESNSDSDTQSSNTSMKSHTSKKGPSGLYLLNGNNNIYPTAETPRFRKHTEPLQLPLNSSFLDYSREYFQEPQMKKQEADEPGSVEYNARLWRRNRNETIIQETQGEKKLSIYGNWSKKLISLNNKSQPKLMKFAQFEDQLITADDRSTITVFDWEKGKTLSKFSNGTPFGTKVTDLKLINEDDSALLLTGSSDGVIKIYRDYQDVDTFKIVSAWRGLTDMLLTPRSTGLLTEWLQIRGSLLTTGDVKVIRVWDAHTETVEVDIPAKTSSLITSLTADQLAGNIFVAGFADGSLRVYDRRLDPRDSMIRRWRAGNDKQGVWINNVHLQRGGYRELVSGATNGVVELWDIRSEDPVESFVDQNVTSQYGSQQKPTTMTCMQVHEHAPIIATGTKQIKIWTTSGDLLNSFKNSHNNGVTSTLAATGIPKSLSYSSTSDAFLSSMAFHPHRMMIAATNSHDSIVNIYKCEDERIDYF
T1 sequence (P41318 whole entry partner): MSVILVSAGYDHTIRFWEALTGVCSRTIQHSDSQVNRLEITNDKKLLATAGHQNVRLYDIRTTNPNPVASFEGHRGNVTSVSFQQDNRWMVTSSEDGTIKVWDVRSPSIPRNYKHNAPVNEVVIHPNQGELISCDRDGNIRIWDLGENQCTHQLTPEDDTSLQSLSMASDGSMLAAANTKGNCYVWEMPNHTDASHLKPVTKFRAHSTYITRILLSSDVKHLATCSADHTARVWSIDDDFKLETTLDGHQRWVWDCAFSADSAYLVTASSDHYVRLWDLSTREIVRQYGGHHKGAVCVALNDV

C/C=C/C/C=C/CCC(=O)[C@H]1O[C@H]1C(N)=O [cerulenin]
FASN, ACC1 and mTOR total protein levels ([1]; 4 h cerulenin): not affected
FASN/Tubulin, Mean ([1]; ED Fig. 3l, relative to DMSO): 1.005
ACC1/Tubulin, Mean ([1]; ED Fig. 3m, relative to DMSO): 1.011
mTOR/Tubulin, Mean ([1]; ED Fig. 3n, relative to DMSO): 1.067
OPP assay (median fluorescence intensity of OPP Alexa Fluor 488, relative to DMSO), Mean (HEK293T cells; HEK293T, n = 6, Fig. 2l): 0.7454
de novo protein synthesis (HEK293T cells): decreased
lysine malonylation of immunopurified yeast Fas1 ([2]; cerulenin-treated (10 μM, 2 h) vs control): malonylation increasing further
malonylation of immunopurified yeast Tor1 ([2]; control or cerulenin-treated (10 μM, 2 h)): unable to detect malonylation
mTORC1 activity in MCF-7 (mTORC1): downregulates

CC(C)(COP(=O)(O)OP(=O)(O)OCC1OC(n2cnc3c(N)ncnc32)C(O)C1OP(=O)(O)O)C(O)C(=O)NCCC(=O)NCCSC(=O)CC(=O)O (stereo not drawn) [Mal-CoA, malonyl-CoA]
Fraction bound transformed (TORC1; Mal-CoA 1.52588e-7 M): -0.1669
Mean Fnorm (TORC1; Mal-CoA 1.52588e-7 M): 842.758 ‰
Fnorm (TORC1; Mal-CoA 1.52588e-7 M, Replicates 1-3 (ED Fig. 10a)): 842.278 ‰ and 840.902 ‰ and 845.093 ‰
Fraction bound transformed (TORC1; Mal-CoA 3.05176e-7 M): 0.1808
Mean Fnorm (TORC1; Mal-CoA 3.05176e-7 M): 838.674 ‰
Fnorm (TORC1; Mal-CoA 3.05176e-7 M, Replicates 1-2 (ED Fig. 10a)): 836.322 ‰ and 841.026 ‰
Fraction bound transformed (TORC1; Mal-CoA 6.10352e-7 M): -0.2372
Mean Fnorm (TORC1; Mal-CoA 6.10352e-7 M): 843.583 ‰
Fnorm (TORC1; Mal-CoA 6.10352e-7 M, Replicates 1-3 (ED Fig. 10a)): 840.469 ‰ and 846.42 ‰ and 843.86 ‰
Fraction bound transformed (TORC1; Mal-CoA 1.2207e-6 M): 0.2149
Mean Fnorm (TORC1; Mal-CoA 1.2207e-6 M): 838.273 ‰
Fnorm (TORC1; Mal-CoA 1.2207e-6 M, Replicates 1-3 (ED Fig. 10a)): 837.823 ‰ and 838.78 ‰ and 838.217 ‰
Fraction bound transformed (TORC1; Mal-CoA 2.44141e-6 M): 0.1801
Mean Fnorm (TORC1; Mal-CoA 2.44141e-6 M): 838.682 ‰
Fnorm (TORC1; Mal-CoA 2.44141e-6 M, Replicates 1-3 (ED Fig. 10a)): 839.959 ‰ and 836.5 ‰ and 839.586 ‰
Fraction bound transformed (TORC1; Mal-CoA 4.88281e-6 M): 0.2862
Mean Fnorm (TORC1; Mal-CoA 4.88281e-6 M): 837.436 ‰
Fnorm (TORC1; Mal-CoA 4.88281e-6 M, Replicates 1-3 (ED Fig. 10a)): 839.798 ‰ and 836.387 ‰ and 836.122 ‰
Fraction bound transformed (TORC1; Mal-CoA 9.76563e-6 M): 0.3923
Mean Fnorm (TORC1; Mal-CoA 9.76563e-6 M): 836.19 ‰
Fnorm (TORC1; Mal-CoA 9.76563e-6 M, Replicates 1-3 (ED Fig. 10a)): 834.741 ‰ and 836.18 ‰ and 837.648 ‰
Fraction bound transformed (TORC1; Mal-CoA 1.95313e-5 M): 0.495
Mean Fnorm (TORC1; Mal-CoA 1.95313e-5 M): 834.984 ‰
Fnorm (TORC1; Mal-CoA 1.95313e-5 M, Replicates 1-3 (ED Fig. 10a)): 835.416 ‰ and 833.302 ‰ and 836.235 ‰
Fraction bound transformed (TORC1; Mal-CoA 3.90625e-5 M): 0.697
Mean Fnorm (TORC1; Mal-CoA 3.90625e-5 M): 832.611 ‰
Fnorm (TORC1; Mal-CoA 3.90625e-5 M, Replicates 1-3 (ED Fig. 10a)): 833.941 ‰ and 832.342 ‰ and 831.55 ‰
Fraction bound transformed (TORC1; Mal-CoA 7.8125e-5 M): 0.721
Mean Fnorm (TORC1; Mal-CoA 7.8125e-5 M): 832.33 ‰
Fnorm (TORC1; Mal-CoA 7.8125e-5 M, Replicates 2-3 (ED Fig. 10a)): 830.576 ‰ and 834.083 ‰
Fraction bound transformed (TORC1; Mal-CoA 0.00015625 M): 0.6458
Mean Fnorm (TORC1; Mal-CoA 0.00015625 M): 833.212 ‰
Fnorm (TORC1; Mal-CoA 0.00015625 M, Replicates 1-3 (ED Fig. 10a)): 833.177 ‰ and 832.509 ‰ and 833.951 ‰
Fraction bound transformed (TORC1; Mal-CoA 0.0003125 M): 0.8154
Mean Fnorm (TORC1; Mal-CoA 0.0003125 M): 831.221 ‰
Fnorm (TORC1; Mal-CoA 0.0003125 M, Replicates 1-3 (ED Fig. 10a)): 828.879 ‰ and 833.898 ‰ and 830.884 ‰
Fraction bound transformed (TORC1; Mal-CoA 0.00125 M): 0.8761
Mean Fnorm (TORC1; Mal-CoA 0.00125 M): 830.508 ‰
Fnorm (TORC1; Mal-CoA 0.00125 M, Replicates 1-3 (ED Fig. 10a)): 830.373 ‰ and 829.245 ‰ and 831.906 ‰
Fraction bound transformed (TORC1; Mal-CoA 0.0025 M): 1.1671
Mean Fnorm (TORC1; Mal-CoA 0.0025 M): 827.09 ‰
Fnorm (TORC1; Mal-CoA 0.0025 M, Replicates 1-3 (ED Fig. 10a)): 828.614 ‰ and 826.728 ‰ and 825.93 ‰
Fraction bound transformed (TORC1; Mal-CoA 0.005 M): 1.112
Mean Fnorm (TORC1; Mal-CoA 0.005 M): 827.742 ‰
Fnorm (TORC1; Mal-CoA 0.005 M, Replicates 1-3 (ED Fig. 10a)): 831.215 ‰ and 831.366 ‰ and 820.645 ‰
Fraction bound transformed (TORC1; Mal-CoA […]): 1.135
Mean Fnorm (TORC1; Mal-CoA […]): 827.462 ‰
Kd (TORC1; purified yeast TORC1 (GFP–Tor1) 7.5 nM, 30 °C, mean ± s.d., n = 3, read-out: Kd (binding of Mal-CoA to TORC1, MST)): 19.3 µM
